Measurements as given in patent US11572369B2, “Bicyclic pyridine compositions and methods of using the same for cancer therapy” (UNIVERSITY OF SOUTH CAROLINA, priority 2019, dated 2023).

How the values were obtained:
Experiment in all cases: KINOMEscan
Assay type in all cases: binding
Details in all cases: 2000 nM
[1] = target: T1, SGK (Homo sapiens, UniProt O00141)
T1 construct: purchased DiscoveRx (KINOMEscan scanMAX panel)

[2] = target: T2, SGK2 (Homo sapiens, UniProt Q9HBY8)
T2 construct: purchased KINOMEscan (DiscoveRx)

[3] = target: T3, TNK1 (Homo sapiens, UniProt Q13470)
T3 construct: DNA label (qPCR read-out); purchased KINOMEscan (DiscoveRx) ScanMAX panel

[4] = target: T4, CAMK1B (Homo sapiens, UniProt Q6P2M8)
T4 construct: DNA label (qPCR read-out); purchased KINOMEscan (ScanMAX panel service)

[5] = target: T5, GRK4 (Homo sapiens, UniProt P32298)
T5 construct: DNA label (for qPCR read-out); purchased DiscoveRx (KINOMEscan scanMAX panel, contract assay)

[6] = target: T6, JNK3 (Homo sapiens, UniProt P53779)
T6 construct: DNA label (for qPCR read-out); purchased DiscoveRx (KINOMEscan scanMAX panel)

[7] = target: T7, JAK2(JH1domain-catalytic) (Homo sapiens, UniProt O60674)
T7 construct: JAK2(JH1domain-catalytic); DNA label (for qPCR read-out); purchased DiscoveRx (KINOMEscan scanMAX panel)
T7 sequence (O60674 849-1124 limits assumed): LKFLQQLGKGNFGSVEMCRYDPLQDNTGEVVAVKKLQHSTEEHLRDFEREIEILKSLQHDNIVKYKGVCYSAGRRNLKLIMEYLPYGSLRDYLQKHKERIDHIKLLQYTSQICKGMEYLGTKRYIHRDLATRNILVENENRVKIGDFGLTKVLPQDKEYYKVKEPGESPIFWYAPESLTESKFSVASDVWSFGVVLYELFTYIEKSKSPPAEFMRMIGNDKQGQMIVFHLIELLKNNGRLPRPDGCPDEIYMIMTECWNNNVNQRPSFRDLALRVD

[8] = target: T8, JAK1(JH1domain-catalytic) (Homo sapiens, UniProt P23458)
T8 construct: JAK1(JH1domain-catalytic); DNA label (qPCR read-out); purchased KINOMEscan (DiscoveRx) ScanMAX panel

[9] = target: T9, IRAK3 (Homo sapiens, UniProt Q9Y616)
T9 construct: DNA label (qPCR read-out); purchased KINOMEscan (DiscoveRx) ScanMAX panel

[10] = target: ABL1(H396P)-nonphosphorylated (Homo sapiens, UniProt P00519, H396P)
[11] = target: T10, EIF2AK1 (Homo sapiens, UniProt Q9BQI3)
T10 construct: purchased DiscoveRx (KINOMEscan scanMAX panel)
T10 sequence (Q9BQI3 whole entry): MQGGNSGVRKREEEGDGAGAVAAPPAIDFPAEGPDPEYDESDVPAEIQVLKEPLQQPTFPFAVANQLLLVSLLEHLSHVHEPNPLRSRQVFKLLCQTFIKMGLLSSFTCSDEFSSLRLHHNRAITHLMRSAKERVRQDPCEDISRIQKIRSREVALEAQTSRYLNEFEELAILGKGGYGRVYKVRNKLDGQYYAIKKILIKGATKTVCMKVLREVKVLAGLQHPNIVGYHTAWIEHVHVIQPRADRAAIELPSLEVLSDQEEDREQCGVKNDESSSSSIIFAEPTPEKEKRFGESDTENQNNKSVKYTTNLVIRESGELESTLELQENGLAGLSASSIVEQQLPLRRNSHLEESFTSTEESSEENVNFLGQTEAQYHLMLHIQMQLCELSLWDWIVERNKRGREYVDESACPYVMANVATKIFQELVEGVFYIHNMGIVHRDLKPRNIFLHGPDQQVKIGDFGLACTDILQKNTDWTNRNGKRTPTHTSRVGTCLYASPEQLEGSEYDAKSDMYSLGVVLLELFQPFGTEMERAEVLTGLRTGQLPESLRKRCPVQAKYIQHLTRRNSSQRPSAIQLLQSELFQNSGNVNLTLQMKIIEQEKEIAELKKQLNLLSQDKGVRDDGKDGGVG

[12] = target: T11, EPHA2 (Homo sapiens, UniProt P29317)
T11 construct: purchased DiscoveRx (KINOMEscan scanMAX panel)

[13] = target: T12, FLT3(N841I) (Homo sapiens, UniProt P36888, N841I)
T12 construct: purchased KINOMEscan (DiscoveRx)

[14] = target: T13, AXL (Homo sapiens, UniProt P30530)
T13 construct: DNA label (qPCR read-out); purchased KINOMEscan scanMAX panel (DiscoveRx)

[15] = target: T14, DCAMKL2 (Homo sapiens, UniProt Q8N568)
T14 construct: DNA label (qPCR read-out); purchased KINOMEscan (DiscoveRx) panel

[16] = target: T15, CSK (Homo sapiens, UniProt P41240)
T15 construct: DNA label; purchased DiscoveRx (KINOMEscan scanMAX panel)

[17] = target: T16, MYLK (Homo sapiens, UniProt Q15746)
T16 construct: DNA label (for qPCR read-out); purchased KINOMEscan scanMAX panel (DiscoveRx)

[18] = target: T17, FLT3 (Homo sapiens, UniProt P36888)
T17 construct: purchased DiscoveRx (KINOMEscan scanMAX panel)

[19] = target: T18, MYLK2 (Homo sapiens, UniProt Q9H1R3)
T18 construct: DNA label (for qPCR read-out); purchased KINOMEscan scanMAX panel (DiscoveRx)

[20] = target: T19, JNK2 (Homo sapiens, UniProt P45984)
T19 construct: DNA label (for qPCR read-out); purchased DiscoveRx (KINOMEscan scanMAX panel)

[21] = target: T20, RSK1(Kin.Dom.1-N-terminal) (Homo sapiens, UniProt Q15418)
T20 construct: RSK1(Kin.Dom.1); purchased DiscoveRx (KINOMEscan scanMAX panel)
T20 sequence (Q15418 62-321 limits assumed): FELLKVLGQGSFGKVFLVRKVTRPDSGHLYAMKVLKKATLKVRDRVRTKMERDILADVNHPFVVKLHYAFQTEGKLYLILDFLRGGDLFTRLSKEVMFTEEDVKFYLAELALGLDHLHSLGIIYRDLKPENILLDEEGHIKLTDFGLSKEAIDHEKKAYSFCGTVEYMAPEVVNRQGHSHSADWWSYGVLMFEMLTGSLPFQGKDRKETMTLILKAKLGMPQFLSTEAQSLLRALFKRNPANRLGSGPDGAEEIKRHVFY

[22] = target: T21, CSNK1G3 (Homo sapiens, UniProt Q9Y6M4)
T21 construct: DNA label; purchased DiscoveRx (KINOMEscan scanMAX panel)

[23] = target: T22, WNK3 (Homo sapiens, UniProt Q9BYP7)
T22 construct: purchased KINOMEscan (DiscoveRx) panel service

[24] = target: T23, PLK4 (Homo sapiens, UniProt O00444)
T23 construct: purchased DiscoveRx (KINOMEscan scanMAX panel)
T23 sequence (O00444 whole entry): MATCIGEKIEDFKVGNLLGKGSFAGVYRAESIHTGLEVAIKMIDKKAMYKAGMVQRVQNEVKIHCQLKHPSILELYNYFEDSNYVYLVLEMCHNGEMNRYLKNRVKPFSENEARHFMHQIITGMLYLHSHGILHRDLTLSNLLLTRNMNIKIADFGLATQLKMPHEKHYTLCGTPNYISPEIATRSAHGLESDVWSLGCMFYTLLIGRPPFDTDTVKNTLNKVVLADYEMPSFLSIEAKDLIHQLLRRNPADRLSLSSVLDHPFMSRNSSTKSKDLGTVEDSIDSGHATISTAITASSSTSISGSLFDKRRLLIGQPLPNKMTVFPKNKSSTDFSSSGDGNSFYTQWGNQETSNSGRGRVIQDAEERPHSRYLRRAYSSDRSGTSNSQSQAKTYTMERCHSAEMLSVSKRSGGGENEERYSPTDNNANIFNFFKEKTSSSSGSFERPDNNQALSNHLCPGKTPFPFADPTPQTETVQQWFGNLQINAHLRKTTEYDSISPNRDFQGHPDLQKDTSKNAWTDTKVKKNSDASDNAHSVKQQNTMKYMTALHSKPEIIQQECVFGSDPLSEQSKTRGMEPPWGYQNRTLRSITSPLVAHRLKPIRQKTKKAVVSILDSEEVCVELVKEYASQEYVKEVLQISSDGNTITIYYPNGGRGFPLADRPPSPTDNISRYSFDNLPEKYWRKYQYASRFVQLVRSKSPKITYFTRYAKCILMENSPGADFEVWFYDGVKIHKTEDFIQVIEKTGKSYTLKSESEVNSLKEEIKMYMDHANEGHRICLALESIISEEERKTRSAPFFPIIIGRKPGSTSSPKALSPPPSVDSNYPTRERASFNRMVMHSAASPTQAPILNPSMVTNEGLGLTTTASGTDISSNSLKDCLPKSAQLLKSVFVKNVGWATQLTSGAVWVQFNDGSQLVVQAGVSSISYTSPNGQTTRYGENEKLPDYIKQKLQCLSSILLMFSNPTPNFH

[25] = target: T24, CLK1 (Homo sapiens, UniProt P49759)
T24 construct: DNA label (for qPCR read-out); purchased DiscoveRx (KINOMEscan scanMAX service)

[26] = target: T25, MAP3K15 (Homo sapiens, UniProt Q6ZN16)
T25 construct: DNA label (qPCR read-out); purchased DiscoverX (KINOMEscan service)
T25 sequence (Q6ZN16 whole entry): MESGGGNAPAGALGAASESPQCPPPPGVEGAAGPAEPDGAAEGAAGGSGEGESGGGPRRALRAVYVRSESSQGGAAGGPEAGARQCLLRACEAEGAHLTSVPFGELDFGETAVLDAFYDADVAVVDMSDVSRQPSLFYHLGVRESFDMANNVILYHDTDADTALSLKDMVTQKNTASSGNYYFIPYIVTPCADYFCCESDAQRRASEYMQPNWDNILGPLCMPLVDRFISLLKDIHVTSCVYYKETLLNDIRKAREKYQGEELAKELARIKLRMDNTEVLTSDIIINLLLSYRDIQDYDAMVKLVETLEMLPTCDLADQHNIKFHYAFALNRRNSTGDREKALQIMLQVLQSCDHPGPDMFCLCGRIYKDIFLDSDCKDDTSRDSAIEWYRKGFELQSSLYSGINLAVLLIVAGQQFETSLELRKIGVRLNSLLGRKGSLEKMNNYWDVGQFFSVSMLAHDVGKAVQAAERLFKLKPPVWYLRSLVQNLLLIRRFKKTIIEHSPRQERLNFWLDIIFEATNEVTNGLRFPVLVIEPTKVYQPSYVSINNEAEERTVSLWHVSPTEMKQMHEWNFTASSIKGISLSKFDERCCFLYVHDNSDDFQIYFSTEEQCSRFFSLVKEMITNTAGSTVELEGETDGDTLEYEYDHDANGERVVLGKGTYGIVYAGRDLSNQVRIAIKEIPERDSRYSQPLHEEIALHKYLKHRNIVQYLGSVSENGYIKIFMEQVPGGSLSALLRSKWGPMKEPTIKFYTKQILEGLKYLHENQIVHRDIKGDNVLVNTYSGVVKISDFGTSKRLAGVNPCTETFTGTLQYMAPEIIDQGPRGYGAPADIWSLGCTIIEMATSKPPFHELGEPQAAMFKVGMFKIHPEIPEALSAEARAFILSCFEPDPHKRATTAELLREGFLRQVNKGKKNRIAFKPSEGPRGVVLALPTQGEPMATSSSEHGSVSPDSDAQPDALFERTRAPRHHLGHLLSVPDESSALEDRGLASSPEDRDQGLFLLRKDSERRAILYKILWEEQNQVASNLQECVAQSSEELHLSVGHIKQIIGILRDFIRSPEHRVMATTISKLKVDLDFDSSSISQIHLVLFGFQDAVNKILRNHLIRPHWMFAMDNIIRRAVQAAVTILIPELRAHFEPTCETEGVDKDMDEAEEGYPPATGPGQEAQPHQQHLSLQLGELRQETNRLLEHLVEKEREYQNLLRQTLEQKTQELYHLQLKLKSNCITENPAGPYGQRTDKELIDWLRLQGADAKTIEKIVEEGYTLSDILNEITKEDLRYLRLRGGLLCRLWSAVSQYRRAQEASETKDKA

[27] = target: T26, RET(V804M) (Homo sapiens, UniProt P07949, V804M)
T26 construct: purchased DiscoveRx (KINOMEscan scanMAX panel)

[28] = target: T27, EGFR(S752-I759del) (Homo sapiens, UniProt P00533, DEL752-759)
T27 construct: purchased DiscoveRx (KINOMEscan scanMAX panel)

[29] = target: T28, CAMK1D (Homo sapiens, UniProt Q8IU85)
T28 construct: DNA label (qPCR read-out); purchased KINOMEscan (ScanMAX panel service)
T28 sequence (Q8IU85 whole entry): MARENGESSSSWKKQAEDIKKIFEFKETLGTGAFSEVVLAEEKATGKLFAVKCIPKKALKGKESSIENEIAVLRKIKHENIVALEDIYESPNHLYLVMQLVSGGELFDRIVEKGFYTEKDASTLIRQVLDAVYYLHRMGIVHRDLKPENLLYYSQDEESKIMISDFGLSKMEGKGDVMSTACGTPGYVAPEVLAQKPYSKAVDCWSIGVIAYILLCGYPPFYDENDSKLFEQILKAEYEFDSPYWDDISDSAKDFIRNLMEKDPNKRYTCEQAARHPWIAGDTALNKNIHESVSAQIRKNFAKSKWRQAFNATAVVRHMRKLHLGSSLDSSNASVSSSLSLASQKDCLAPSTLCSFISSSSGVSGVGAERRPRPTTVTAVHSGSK

[30] = target: T29, RAF1 (Homo sapiens, UniProt P04049)
T29 construct: purchased DiscoveRx (KINOMEscan scanMAX panel)

[31] = target: T30, MLK1 (Homo sapiens, UniProt P80192)
T30 construct: DNA label (qPCR read-out); purchased KINOMEscan scanMAX panel (DiscoveRx)
T30 sequence (P80192 whole entry): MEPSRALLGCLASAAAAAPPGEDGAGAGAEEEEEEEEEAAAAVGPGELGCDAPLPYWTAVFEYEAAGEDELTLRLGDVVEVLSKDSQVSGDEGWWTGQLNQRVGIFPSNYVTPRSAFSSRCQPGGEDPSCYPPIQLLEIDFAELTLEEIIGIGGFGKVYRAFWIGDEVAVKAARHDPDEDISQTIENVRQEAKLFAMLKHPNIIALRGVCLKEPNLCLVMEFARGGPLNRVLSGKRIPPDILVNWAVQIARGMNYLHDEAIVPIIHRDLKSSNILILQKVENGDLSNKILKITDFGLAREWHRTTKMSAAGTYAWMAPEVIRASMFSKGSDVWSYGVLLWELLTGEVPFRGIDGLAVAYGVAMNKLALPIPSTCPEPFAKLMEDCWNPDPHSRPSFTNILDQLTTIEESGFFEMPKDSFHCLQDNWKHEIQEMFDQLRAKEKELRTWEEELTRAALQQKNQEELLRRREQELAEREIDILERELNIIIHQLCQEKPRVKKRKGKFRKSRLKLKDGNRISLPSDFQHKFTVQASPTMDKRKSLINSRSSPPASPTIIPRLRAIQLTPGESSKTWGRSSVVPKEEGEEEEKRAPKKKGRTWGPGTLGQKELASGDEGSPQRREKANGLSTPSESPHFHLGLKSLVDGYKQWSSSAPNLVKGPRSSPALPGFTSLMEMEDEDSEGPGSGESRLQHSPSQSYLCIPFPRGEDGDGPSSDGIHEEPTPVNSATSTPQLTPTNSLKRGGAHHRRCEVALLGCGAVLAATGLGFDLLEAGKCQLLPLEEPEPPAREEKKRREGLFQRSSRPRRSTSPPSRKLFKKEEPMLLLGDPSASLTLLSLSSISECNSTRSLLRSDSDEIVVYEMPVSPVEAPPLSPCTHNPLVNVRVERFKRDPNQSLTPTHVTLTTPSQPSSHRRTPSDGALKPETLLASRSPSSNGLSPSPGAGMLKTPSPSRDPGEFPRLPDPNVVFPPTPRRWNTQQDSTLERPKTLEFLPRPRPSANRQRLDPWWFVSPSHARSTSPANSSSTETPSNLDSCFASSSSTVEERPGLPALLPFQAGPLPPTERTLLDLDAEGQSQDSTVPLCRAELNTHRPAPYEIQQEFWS

[32] = target: T31, TIE2 (Homo sapiens, UniProt Q02763)
T31 construct: DNA label (qPCR read-out); purchased KINOMEscan (DiscoveRx) ScanMAX panel

[33] = target: T32, GAK (Homo sapiens, UniProt O14976)
T32 construct: purchased KINOMEscan (DiscoveRx)

Structure (SMILES) | % Ctrl [1] | % Ctrl [2] | % Ctrl [3] | % Ctrl [4] | % Ctrl [5] | % Ctrl [6] | % Ctrl [7] | % Ctrl [8] | % Ctrl [9] | % Ctrl [10] | % Ctrl [11] | % Ctrl [12] | % Ctrl [13] | % Ctrl [14] | % Ctrl [15] | % Ctrl [16] | % Ctrl [17] | % Ctrl [18] | % Ctrl [19] | % Ctrl [20] | also measured
[2H]C([2H])([2H])N(C(=O)c1ccc(N2CCCN(c3ccnc4sc(C(N)=O)c(N)c34)CC2)cc1)C([2H])([2H])[2H] [15u_D6, 3-amino-4-(4-(4-(bis(methyl-d3)carbamoyl)phenyl)-1,4-diazepan-1-yl)thieno[2,3-b]pyridine-2-carboxamide] | 83 % Ctrl | 81 % Ctrl | 100 % Ctrl | 70 % Ctrl | 98 % Ctrl | 44 % Ctrl | 93 % Ctrl | 82 % Ctrl | 89 % Ctrl | 76 % Ctrl | 78 % Ctrl | 100 % Ctrl | 86 % Ctrl | 96 % Ctrl | 100 % Ctrl | 92 % Ctrl | 71 % Ctrl | 86 % Ctrl | 100 % Ctrl | 54 % Ctrl | % Ctrl [21]: 96 % Ctrl; % Ctrl [22]: 80 % Ctrl; % Ctrl [23]: 100 % Ctrl; % Ctrl [24]: 92 % Ctrl; % Ctrl [25]: 68 % Ctrl; % Ctrl [26]: 92 % Ctrl; % Ctrl [27]: 100 % Ctrl; % Ctrl [28]: 100 % Ctrl; % Ctrl [29]: 93 % Ctrl; % Ctrl [30]: 100 % Ctrl; % Ctrl [31]: 92 % Ctrl; % Ctrl [32]: 100 % Ctrl; % Ctrl [33]: 94 % Ctrl
CN(C)C(=O)c1ccc(N2CCCN(c3ccnc4sc(C(N)=O)c(N)c34)CC2)cc1 [15u, 3-amino-4-(4-(4-(dimethylcarbamoyl)phenyl)-1,4-diazepan-1-yl)thieno[2,3-b]pyridine-2-carboxamide] | 86 % Ctrl | 100 % Ctrl | 100 % Ctrl | 100 % Ctrl | 62 % Ctrl | 91 % Ctrl | 100 % Ctrl | 57 % Ctrl | 93 % Ctrl | 100 % Ctrl | 93 % Ctrl | 95 % Ctrl | 90 % Ctrl | 99 % Ctrl | 100 % Ctrl | 86 % Ctrl | 74 % Ctrl | 94 % Ctrl | 100 % Ctrl | 99 % Ctrl | % Ctrl [21]: 98 % Ctrl; % Ctrl [22]: 95 % Ctrl; % Ctrl [23]: 97 % Ctrl; % Ctrl [24]: 95 % Ctrl; % Ctrl [25]: 88 % Ctrl; % Ctrl [26]: 97 % Ctrl; % Ctrl [27]: 100 % Ctrl; % Ctrl [28]: 86 % Ctrl; % Ctrl [29]: 87 % Ctrl; % Ctrl [30]: 97 % Ctrl; % Ctrl [31]: 95 % Ctrl; % Ctrl [32]: 72 % Ctrl; % Ctrl [33]: 88 % Ctrl
